Reference: patent US20250171430A1, “PYRAZOLYL COMPOUNDS AS KV7 CHANNEL ACTIVATORS” (Biohaven Therapeutics Ltd., priority 2022, published 2025)

Molecular target: T1, Kv7.2/7.3 (Homo sapiens, UniProt O43525+O43526)
T1 construct: Kv7.2 tetracycline-induced, Kv7.3 constitutive
Test: Kv7.2/7.3 Activation Assay (Thallium Flux Assay)
Type: cell-based
Settings: hKV7.2/7.3 cell line; test compound at single concentration of 10 μM; fluorescence at 90 sec normalized to positive control (retigabine, 30 μM)
Procedure, shortened: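 Single-point activity at 10 μM (0.1% DMSO, HEPES-buffered saline, pH 7.4) was scored from fluorescence at 90 s relative to 30 μM retigabine. Categories were none <0.15, moderate 0.15-0.7 and high >0.7. Thallium influx after stimulus addition was followed with FluxOR II Green dye in hKv7.2/7.3 cells, Kv7.2 expressed under overnight tetracycline (10 ng/mL) induction.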

SMILES | Kv7.2/7.3 Activity
Cn1nc(NC(=O)C2(C)CC2)c(C2CCC2)c1-c1ccc(F)cc1 [Compound 146, N-(4-cyclobutyl-5-(4-fluorophenyl)-1-methyl-1H-pyrazol-3-yl)-1-methylcyclopropane-1-carboxamide] | + (“+” Moderate Activity 0.15-0.7)
Cn1nc(NC(=O)[C@@H]2CC2(F)F)c(C2CCC2)c1C1CC(C)(C)C1 [Compound 147, (S)-N-(4-cyclobutyl-5-(3,3-dimethylcyclobutyl)-1-methyl-1H-pyrazol-3-yl)-2,2-difluorocyclopropane-1-carboxamide] | ++ (“++” High Activity ≥ 0.7)
Cn1nc(NC(=O)[C@H]2CC2(F)F)c(C2CCC2)c1C1CC(C)(C)C1 [Compound 148, (R)-N-(4-cyclobutyl-5-(3,3-dimethylcyclobutyl)-1-methyl-1H-pyrazol-3-yl)-2,2-difluorocyclopropane-1-carboxamide] | ++ (“++” High Activity ≥ 0.7)
Cc1nc(C)c(-c2c(C3CCC3)c(NC(=O)C3(C(F)(F)F)CC3)nn2C)s1 [Compound 149, N-(4-cyclobutyl-5-(2,4-dimethylthiazol-5-yl)-1-methyl-1H-pyrazol-3-yl)-1-(trifluoromethyl)cyclopropane-1-carboxamide] | − (“−” No Activity < 0.15)
Cn1nc(NC(=O)C2(C(F)(F)F)CC2)c(C2CCC2)c1-c1ccc(OC(F)(F)F)cc1 [Compound 150, N-(4-cyclobutyl-1-methyl-5-(4-(trifluoromethoxy)phenyl)-1H-pyrazol-3-yl)-1-(trifluoromethyl)cyclopropane-1-carboxamide] | + (“+” Moderate Activity 0.15-0.7)
Cn1nc(NC(=O)C2(C(F)(F)F)CC2)c(C2CCC2)c1C1CC(C)(C)C1 [Compound 151, N-(4-cyclobutyl-5-(3,3-dimethylcyclobutyl)-1-methyl-1H-pyrazol-3-yl)-1-(trifluoromethyl)cyclopropane-1-carboxamide] | ++ (“++” High Activity ≥ 0.7)
Cn1nc(NC(=O)C2(C)CC2)c(C2CCC2)c1-c1ccc(Cl)s1 [Compound 152, N-(5-(5-chlorothiophen-2-yl)-4-cyclobutyl-1-methyl-1H-pyrazol-3-yl)-1-methylcyclopropane-1-carboxamide] | ++ (“++” High Activity ≥ 0.7)
Cn1nc(NC(=O)C2(C(F)(F)F)CC2)c(C2CCC2)c1-c1ccc(Cl)s1 [Compound 153, N-(5-(5-chlorothiophen-2-yl)-4-cyclobutyl-1-methyl-1H-pyrazol-3-yl)-1-(trifluoromethyl)cyclopropane-1-carboxamide] | ++ (“++” High Activity ≥ 0.7)
Cn1nc(NC(=O)[C@H]2CC2(F)F)c(C2CCC2)c1-c1ccc(Cl)s1 [Compound 154, (R)-N-(5-(5-chlorothiophen-2-yl)-4-cyclobutyl-1-methyl-1H-pyrazol-3-yl)-2,2-difluorocyclopropane-1-carboxamide] | + (“+” Moderate Activity 0.15-0.7)
Cn1nc(NC(=O)[C@@H]2CC2(F)F)c(C2CCC2)c1-c1ccc(Cl)s1 [Compound 155, (S)-N-(5-(5-chlorothiophen-2-yl)-4-cyclobutyl-1-methyl-1H-pyrazol-3-yl)-2,2-difluorocyclopropane-1-carboxamide] | ++ (“++” High Activity ≥ 0.7)
Cn1nc(NC(=O)[C@@H]2CC2(F)F)c(C2CCC2)c1C1CC(F)(F)C1 [Compound 156, (S)-N-(4-cyclobutyl-5-(3,3-difluorocyclobutyl)-1-methyl-1H-pyrazol-3-yl)-2,2-difluorocyclopropane-1-carboxamide] | ++ (“++” High Activity ≥ 0.7)
Cn1nc(NC(=O)[C@H]2CC2(F)F)c(C2CCC2)c1C1CC(F)(F)C1 [Compound 157, (R)-N-(4-cyclobutyl-5-(3,3-difluorocyclobutyl)-1-methyl-1H-pyrazol-3-yl)-2,2-difluorocyclopropane-1-carboxamide] | ++ (“++” High Activity ≥ 0.7)
Cn1nc(NC(=O)C2(C(F)(F)F)CC2)c(C2CCC2)c1C1CC(F)(F)C1 [Compound 158, N-(4-cyclobutyl-5-(3,3-difluorocyclobutyl)-1-methyl-1H-pyrazol-3-yl)-1-(trifluoromethyl)cyclopropane-1-carboxamide] | ++ (“++” High Activity ≥ 0.7)
Cn1nc(NC(=O)[C@H]2CC2(F)F)c(C2CCC2)c1-c1ccc(F)cc1F [Compound 159, (R)-N-(4-cyclobutyl-5-(2,4-difluorophenyl)-1-methyl-1H-pyrazol-3-yl)-2,2-difluorocyclopropane-1-carboxamide] | + (“+” Moderate Activity 0.15-0.7)
Cn1nc(NC(=O)[C@@H]2CC2(F)F)c(C2CCC2)c1-c1ccc(F)cc1F [Compound 160, (S)-N-(4-cyclobutyl-5-(2,4-difluorophenyl)-1-methyl-1H-pyrazol-3-yl)-2,2-difluorocyclopropane-1-carboxamide] | − (“−” No Activity < 0.15)
Cn1nc(NC(=O)[C@H]2CC2(F)F)c(C2CCC2)c1-c1ccccc1F [Compound 161, (R)-N-(4-cyclobutyl-5-(2-fluorophenyl)-1-methyl-1H-pyrazol-3-yl)-2,2-difluorocyclopropane-1-carboxamide] | + (“+” Moderate Activity 0.15-0.7)
Cn1nc(NC(=O)[C@@H]2CC2(F)F)c(C2CCC2)c1-c1ccccc1F [Compound 162, (S)-N-(4-cyclobutyl-5-(2-fluorophenyl)-1-methyl-1H-pyrazol-3-yl)-2,2-difluorocyclopropane-1-carboxamide] | + (“+” Moderate Activity 0.15-0.7)
Cn1nc(NC(=O)[C@@H]2CC2(F)F)c(C2CC2)c1-c1ccc(F)cc1 [Compound 163, (S)-N-(4-cyclopropyl-5-(4-fluorophenyl)-1-methyl-1H-pyrazol-3-yl)-2,2-difluorocyclopropane-1-carboxamide] | + (“+” Moderate Activity 0.15-0.7)
Cn1nc(NC(=O)[C@H]2CC2(F)F)c(C2CC2)c1-c1ccc(F)cc1 [Compound 164, (R)-N-(4-cyclopropyl-5-(4-fluorophenyl)-1-methyl-1H-pyrazol-3-yl)-2,2-difluorocyclopropane-1-carboxamide] | ++ (“++” High Activity ≥ 0.7)
Cn1nc(NC(=O)C2(C(F)(F)F)CC2)c(C2CC2)c1-c1ccc(F)cc1 [Compound 165, N-(4-cyclopropyl-5-(4-fluorophenyl)-1-methyl-1H-pyrazol-3-yl)-1-(trifluoromethyl)cyclopropane-1-carboxamide] | ++ (“++” High Activity ≥ 0.7)
Cn1nc(NC(=O)C2(C(F)(F)F)CC2)c(C2CCC2)c1-c1cccc(F)c1 [Compound 166, N-(4-cyclobutyl-5-(3-fluorophenyl)-1-methyl-1H-pyrazol-3-yl)-1-(trifluoromethyl)cyclopropane-1-carboxamide] | ++ (“++” High Activity ≥ 0.7)
Cn1nc(NC(=O)[C@@H]2CC2(F)F)c(C2CCC2)c1-c1cccc(F)c1 [Compound 167, (S)-N-(4-cyclobutyl-5-(3-fluorophenyl)-1-methyl-1H-pyrazol-3-yl)-2,2-difluorocyclopropane-1-carboxamide] | + (“+” Moderate Activity 0.15-0.7)
Cn1nc(NC(=O)[C@H]2CC2(F)F)c(C2CCC2)c1-c1cccc(F)c1 [Compound 168, (R)-N-(4-cyclobutyl-5-(3-fluorophenyl)-1-methyl-1H-pyrazol-3-yl)-2,2-difluorocyclopropane-1-carboxamide] | ++ (“++” High Activity ≥ 0.7)
O=C(Nc1nn(CC(F)(F)F)c(-c2ccc(F)cc2)c1C1CCC1)C1(C(F)(F)F)CC1 [Compound 169, N-(4-cyclobutyl-5-(4-fluorophenyl)-1-(2,2,2-trifluoroethyl)-1H-pyrazol-3-yl)-1-(trifluoromethyl)cyclopropane-1-carboxamide] | + (“+” Moderate Activity 0.15-0.7)
Cn1nc(NC(=O)C2(C(F)(F)F)CC2)c(C2CCC2)c1-c1ccccc1F [Compound 170, N-(4-cyclobutyl-5-(2-fluorophenyl)-1-methyl-1H-pyrazol-3-yl)-1-(trifluoromethyl)cyclopropane-1-carboxamide] | + (“+” Moderate Activity 0.15-0.7)
Cn1nc(NC(=O)C2(C(C)(F)F)CC2)c(C2CCC2)c1-c1ccccc1F [Compound 171, N-(4-cyclobutyl-5-(2-fluorophenyl)-1-methyl-1H-pyrazol-3-yl)-1-(1,1-difluoroethyl)cyclopropane-1-carboxamide] | + (“+” Moderate Activity 0.15-0.7)
Cn1nc(NC(=O)C(C)(C)C(F)F)c(C2CCC2)c1-c1ccccc1F [Compound 172, N-(4-cyclobutyl-5-(2-fluorophenyl)-1-methyl-1H-pyrazol-3-yl)-3,3-difluoro-2,2-dimethylpropanamide] | + (“+” Moderate Activity 0.15-0.7)
Cn1nc(NC(=O)[C@H]2CC2(F)F)c(C2CCC2)c1-c1ccc(OC(F)(F)F)cc1 [Compound 173, (R)-N-(4-cyclobutyl-1-methyl-5-(4-(trifluoromethoxy)phenyl)-1H-pyrazol-3-yl)-2,2-difluorocyclopropane-1-carboxamide] | − (“−” No Activity < 0.15)
Cn1nc(NC(=O)[C@@H]2CC2(F)F)c(C2CCC2)c1-c1ccc(OC(F)(F)F)cc1 [Compound 174, (S)-N-(4-cyclobutyl-1-methyl-5-(4-(trifluoromethoxy)phenyl)-1H-pyrazol-3-yl)-2,2-difluorocyclopropane-1-carboxamide] | + (“+” Moderate Activity 0.15-0.7)
Cn1nc(NC(=O)CC(C)(O)c2ccc(F)cc2F)c(C2CCC2)c1-c1ccc(OC(F)(F)F)cc1 (stereo not drawn) [Compound 175, N-(4-cyclobutyl-1-methyl-5-(4-(trifluoromethoxy)phenyl)-1H-pyrazol-3-yl)-3-(2,4-difluorophenyl)-3-hydroxybutanamide] | ++ (“++” High Activity ≥ 0.7)
